Experimental findings from EP1100453B1, “COSMETIC FORMULATION CONTAINING ECTOINE DERIVATIVES, ENZYMES, VITAMINS AND/OR VITAMIN DERIVATIVES” (MERCK PATENT GmbH, priority 1998, dated 2000) are described below.

Holding throughout (assay type): biochemical
Test [1] concerns the target T1, Katalase (Homo sapiens, UniProt P04040).
T1 sequence (P04040 1-527): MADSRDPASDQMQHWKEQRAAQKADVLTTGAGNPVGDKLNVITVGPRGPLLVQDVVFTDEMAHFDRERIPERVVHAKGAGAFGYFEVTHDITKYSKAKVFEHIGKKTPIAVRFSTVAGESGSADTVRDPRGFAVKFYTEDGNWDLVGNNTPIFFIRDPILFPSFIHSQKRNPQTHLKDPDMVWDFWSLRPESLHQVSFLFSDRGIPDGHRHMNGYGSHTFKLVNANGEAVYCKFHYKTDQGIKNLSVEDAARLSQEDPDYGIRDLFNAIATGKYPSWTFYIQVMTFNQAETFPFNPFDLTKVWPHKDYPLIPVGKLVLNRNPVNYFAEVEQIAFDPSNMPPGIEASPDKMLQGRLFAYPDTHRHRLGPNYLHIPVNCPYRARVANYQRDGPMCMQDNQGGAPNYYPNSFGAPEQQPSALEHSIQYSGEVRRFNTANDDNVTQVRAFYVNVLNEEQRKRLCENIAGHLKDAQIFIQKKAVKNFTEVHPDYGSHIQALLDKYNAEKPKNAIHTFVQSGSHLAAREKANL
Briefly: Enzyme stabilisation by Ectoin against temperature stress in vitro: catalase activity. As to conditions: for activation at 1 M: 0.5 h, read-out: Aktivität. From the text:
(§1) Das Grundmedium für die Inkubation ist eine 0,25 molare Tris-HCl-Pufferlösung mit einem pH-Wert von 6,8.
(§2) Die Bestimmung der Enzymaktivität erfolgt • für Katalase nach der Methode von A. Claiborne [A. Claiborne 'Catalase Activity' in: R.A. Greenwald (Ed.), Handbook of Methods for Oxygen Radical Research, CRC Press, Boca Raton, FL. (1986) 283-284], • für Glutathionperoxidase nach der Methode von L. Flohé und W.A. Günzler [L. Flohé et al., Methods Enzymol. 105 (1989) 114-121], • für Superoxiddismutase nach der Methode von H.P. Nissen und H.W. Kreysel [H.W. Kreysel et al., 'Superoxide Dismutase in Human Semen, Klin. Wochenschr. 61 (1983) 63-65] und • für Elastase nach der Methode von L. Hornebeck und W. Hornebeck [W. Hornebeck et al., 'Characterisation of Human Skin Fibroblasts Elastase Activity', J. Invest. Dermatol. 91 (5) (1988) 472-477].
(§3) Die Ergebnisse sind für Katalase in Abb. 1, für Glutathionperoxidase in Abb. 2, für Superoxiddimutase in Abb. 3 und für Elastase in Abb. 4 dargestellt.

The test system of test [2] is Glutathionperoxidase. Briefly: Enzyme stabilisation by Ectoin against temperature stress in vitro: glutathione peroxidase activity. Conditions: 30 min incubation, Ectoin 1 mol/l, enzyme 0,05 mg/ml, Tris-HCl pH 6,8, difference to enzyme without Ectoin (set to 100 %).
Source text: as §1, §2, §3

The test system of test [3] is Elastase. Briefly: Enzyme stabilisation by Ectoin against temperature stress in vitro: elastase activity. As to conditions: 30 min incubation, Ectoin 1 mol/l, enzyme 0,05 mg/ml, Tris-HCl pH 6,8, difference to enzyme without Ectoin (set to 100 %).
Source text: as §1, §2, §3

Test [4] relates to Superoxiddismutase. The test can be described thus: Enzyme stabilisation by Ectoin against temperature stress in vitro: superoxide dismutase activity. As to conditions: 30 min incubation, Ectoin 1 mol/l, enzyme 0,05 mg/ml, Tris-HCl pH 6,8, difference to enzyme without Ectoin (set to 100 %).
Source text: as §1, §2, §3

Read-outs that look alike come from different tables or passages of the source.

For `CC1=N[C@H](C(=O)O)CCN1` [Ectoin, (S)-1,4,5,6-Tetrahydro-2-methyl-4-pyrimidincarbonsäure], the “Aktivität von mit Ectoin behandelter Katalase relativ zu nicht mit Ectoin behandelter Katalase” value in test [1] (50 °C incubation, ratio of activity with Ectoin to activity without Ectoin) is reported as “mehr als doppelt so aktiv”. The Aktivität in test [1] (50 °C, 30 min incubation, Ectoin 1 mol/l, enzyme 0,05 mg/ml, Tris-HCl pH 6,8, difference to enzyme without Ectoin (set to 100 %)) was 117,9%; in test [2] (20 °C) it was 3,5%; in test [2] (30 °C), 1,4%; in test [2] (40 °C), 20,8%; in test [2] (50 °C), 39,6%; in test [3] (30 °C), 4,0%. Further, the Aktivität in test [3] (40 °C) is listed as 15,0%; in test [3] (50 °C), 25,7%; in test [4] (20 °C), 4,9%; in test [4] (40 °C) it was 14,4%; in test [4] (50 °C) it was 17,4%. Further, the activation at 1 M in test [1] (pH 6, 20 °C, 30 min incubation, Ectoin 1 mol/l, enzyme 0,05 mg/ml, Tris-HCl pH 6,8, difference to enzyme without Ectoin (set to 100 %)) is 2.5%; in test [1] (pH 6, 30 °C, 30 min incubation, Ectoin 1 mol/l, enzyme 0,05 mg/ml, Tris-HCl pH 6,8, difference to enzyme without Ectoin (set to 100 %)) it was 10.4%; in test [1] (pH 6, 40 °C, 30 min incubation, Ectoin 1 mol/l, enzyme 0,05 mg/ml, Tris-HCl pH 6,8, difference to enzyme without Ectoin (set to 100 %)) it was about 25%; in test [1] (pH 6, 50 °C, 30 min incubation, Ectoin 1 mol/l, enzyme 0,05 mg/ml, Tris-HCl pH 6,8, difference to enzyme without Ectoin (set to 100 %)) it was about 120%.
